“Also recorded” adds a separate entry of the source. Read-outs that look alike come from different tables or passages of the source.
Key:
[1] = in humans; cited from earlier work
rabbit liver CE [2] = biological target: T1, rabbit liver CE (Oryctolagus cuniculus, UniProt P12337); type: biochemical; parameters: To amplify a full length rabbit CE cDNA, oligonucleotide primers RabNTERM; expressed in transfected cells; details: in vitro, rabbit CE (FIG. 6)
T1 sequence (P12337 19-565): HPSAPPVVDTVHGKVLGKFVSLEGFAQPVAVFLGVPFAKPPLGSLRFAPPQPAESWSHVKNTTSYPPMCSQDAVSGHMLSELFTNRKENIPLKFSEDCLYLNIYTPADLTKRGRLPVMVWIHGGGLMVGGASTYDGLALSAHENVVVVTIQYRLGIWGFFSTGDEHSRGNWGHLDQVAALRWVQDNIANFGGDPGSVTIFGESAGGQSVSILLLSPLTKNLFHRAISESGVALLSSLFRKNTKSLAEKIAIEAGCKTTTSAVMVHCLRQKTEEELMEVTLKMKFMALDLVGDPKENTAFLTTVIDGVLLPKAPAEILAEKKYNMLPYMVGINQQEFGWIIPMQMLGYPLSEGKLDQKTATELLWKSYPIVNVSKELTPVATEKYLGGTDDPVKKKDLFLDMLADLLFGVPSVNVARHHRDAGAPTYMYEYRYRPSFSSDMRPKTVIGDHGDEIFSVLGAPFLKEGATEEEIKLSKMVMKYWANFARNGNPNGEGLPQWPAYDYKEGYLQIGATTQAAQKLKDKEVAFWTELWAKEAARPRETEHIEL
From the text: FIG. 6 is a linegraph showing the conversion of APC, depicted on the X-axis at nanomolar concentrations, to SN-38, depicted on the Y-axis at nanomolar concentrations, in vitro by the activity of rabbit liver CE given at doses of 0 (filled cross), 10 (filled hexagon), 25 (filled triangle), 50 (filled circle) or 100 (filled square) units. Data presented represent the mean response at each dose level.
(§1) No known human enzyme activates APC. […] Thus, the combination of APC and sensitization of selected tumor cells with rabbit liver CE as described above can be used to produce a tumor-specific cell death while greatly minimizing the toxic side effects associated with administration of chemotherapy.

[3] = tested on: U-373 glioma cells expressing rabbit liver CE; assay: Growth inhibition by APC, U-373 glioma cells expressing rabbit liver CE; type: cell-based, human; details: U-373 cells expressing rabbit liver CE, 2 h exposure (FIG. 7)
Protocol: FIG. 7 is a linegraph showing a comparison of the sensitization, depicted as % survival on the Y-axis, of U-373 glioma cells exposed to APC, depicted as log[APC] at concentrations from 10^−8 to 10^−5 M on the X-axis, from in situ expression of rabbit liver CE (filled squares) and human alveolar macrophage CE (filled circles). Cells were exposed for 2 hours to APC.
as §1

rabbit liver CE [4] = biological target: rabbit liver CE (Oryctolagus cuniculus, UniProt P12337); details: commercially available partially purified rabbit liver CE
From the text: (§2) This screening included enzymes from a series of sera, cell extracts and commercially available CEs using a rapid fluorometric assay.

[5] = tested on: Cos7 cells expressing rabbit liver CE; assay: Cell survival of Cos7 cells transiently transfected with rabbit CE (pCIRABFL); type: cell-based, monkey; details: control Cos7 cells versus Cos7 cells transfected with CE
From the text: To confirm that the cDNA encoded CE, the 1.7 kb EcoRI fragment was ligated into pCIneo to generate pCIRABFL and the plasmid transiently transfected into Cos7 cells. pCIneo contains the SV40 origin of replication allowing plasmid amplification in cells expressing the large T antigen, such as Cos7.

pig liver CE = assay: CPT-11 metabolism by commercially available pig liver CE; details: commercially available partially purified pig liver CE
From the text: as §2

human NB-1691 xenografts = assay: NB-1691 xenograft model for MRD; type: in vivo, mice; details: 10 mg/kg CPT-11 daily for 5 days on two consecutive weeks
From the text: However, within 4-6 weeks, tumors are palpable in the exact position where the original xenograft was implanted. Since these tumors arise from cells that survived the initial cycle of chemotherapy, this model therefore mimics results seen in patients following surgical resection of the primary tumor and subsequent regrowth at the same site.

Rh18 RMS xenografts = details: cited from earlier work
[6] = tested on: COS-7 cells transfected with the parent plasmid; assay: Growth inhibition, COS-7 cells transfected with parent plasmid; type: cell-based, monkey; details: Primates, read-out: IC50 (CPT-11); COS-7 cells transfected with the parent plasmid (pCEneo)
Protocol: (§3) Growth inhibition assays were performed with COS-7 cells as previously described (Potter et al. 1998 Cancer Res. 52:2646-2651; Danks et al. 1998 Cancer Res. 52:2646-2651,1998). Forty-eight hours after transfection, 5×10^4 cells were plated into 1.5 cm diameter dishes and allowed to attach overnight. […] Cell number was determined by counting using a Coulter Multisyser II (Coulter Electronics, Luton, England) and growth inhibition curves were plotted using Prism software (GraphPad Software Inc., San Diego, Calif.).

human liver CE (hCE1) = biological target: T2, human liver CE (hCE1) (Homo sapiens, UniProt P23141); assay: CPT-11 conversion assay, COS-7 cells expressing hCE1; type: in vitro ADME; details: plasmid pCIHUMCAR, enzyme hCE1
T2 construct: expressed in transfected cells; host or cells: COS-7 (sonicates of transiently transfected cells)

[7] = tested on: Rh30pIRESrabbit xenografts (expressing rabbit CE); assay: Rh30pIRESrabbit rhabdomyosarcoma xenografts in SCID mice; type: in vivo; details: 2.5 mg CPT-11/kg/day, 5 days/week for 2 weeks, every 21 days, three cycles
Protocol: (§4) The tumor growth rate is depicted on the Y-axis of each graph in terms of tumor volume and is plotted as a function of time in weeks (X-axis).
(§5) In this preclinical model, expression of the transfected cDNA for rabbit CE was maintained for at least 12 weeks.
(§6) Experiments were performed in this model to compare the responses of mice bearing human Rh30 and Rh30pIRESrabbit xenografts. Rh30 rhabdosarcoma xenografts were transfected with pIRESneo plasmid containing the cDNA for rabbit liver CE and selected with G418. Expression of CE was confirmed by biochemical assay using the CE substrate o-NPA and maintained for at least 12 weeks. Two groups of SCID mice were then injected with the transfected Rh30pIRESrabbit cells subcutaneously into the flanks. A third group of control mice was injected in identical fashion with Rh30 cells not transfected with the plasmid.

[8] = tested on: U373 glioblastoma xenografts transfected with control plasmid; assay: U373 glioblastoma xenografts with control plasmid in SCID mice; type: in vivo; details: U373 xenografts with control plasmid (no rabbit CE), CPT-11 7.5 mg/kg/day, three cycles
From the text: (§7) The tumor growth rate is depicted on the Y-axis in terms of tumor volume and is plotted as a function of time in weeks (X-axis). Open circles depict the tumor volume of untreated U373 xenografts expressing rabbit CE. Filled triangles depict the response of control xenografts (no rabbit CE) treated with CPT-11. Filled squares depict the response of cells expressing rabbit CE and treated with CPT-11. […] Each point represents the mean of 14 tumors in 7 individual mice.
(§8) Similar studies were performed employing U373 glioblastoma cells transfected with the pIRESneo plasmid or with pIRESneo containing the cDNA for rabbit liver CE and selected with G418. Expression of CE in the tumor cells was confirmed by biochemical assay using the substrate o-NPA. Cells were injected subcutaneously into the flanks of the SCID mice.

[9] = tested on: CEs purified from human tissues; details: cited from earlier work
[10] = tested on: COS-7 cells expressing hiCE; assay: Growth inhibition, COS-7 cells expressing hiCE; type: cell-based, monkey; details: Primates, read-out: IC50 (CPT-11), 2 h exposure, three days growth
Protocol: as §3

rabbit liver CE [11] = biological target: T1, rabbit liver CE; type: in vitro ADME; parameters: To amplify a full length rabbit CE cDNA, oligonucleotide primers RabNTERM; expressed in transfected cells; host or cells: COS-7 (sonicates of transiently transfected cells); details: COS-7 cells, plasmid pCIRAB, enzyme rabbit
Rh30 xenografts = assay: Rh30 rhabdomyosarcoma xenografts (no CE) in SCID mice; type: in vivo; details: Rh30 xenografts not expressing CE, 2.5 mg CPT-11/kg/day, 5 days/week for 2 weeks, every 21 days, three cycles
Protocol: as §4, §5, §6

[12] = tested on: U373 glioblastoma xenografts expressing rabbit liver CE; assay: U373 glioblastoma xenografts expressing rabbit CE in SCID mice; type: in vivo; details: CPT-11 7.5 mg/kg/day, three cycles
From the text: as §7, §8

Rh30 cells = assay: Growth inhibition of Rh30 cells by CPT-11 pre-incubated with rabbit liver CE; type: cell-based, human
From the text: Another aspect of the present invention relates to the ability of compositions comprising a polynucleotide encoding a carboxylesterase and a disease-specific responsive promoter of selected tumor cells to sensitize the tumor cells to a chemotherapeutic prodrug. The ability of a rabbit CE or a human intestinal CE of the present invention to sensitize human tumor cells to CPT-11 was examined. Experiments were first performed to confirm that the metabolite produced by the activity of a CE of the present invention is biologically active in vitro. Rh30 cells were exposed to the products of each reaction for one hour and the percentage of growth inhibition was determined. […] Similar confirmatory experiments were performed with COS-7 cells.
Each reaction mixture was then filter-sterilized and Rh30 cells were exposed to drug for one hour, at which time the medium was replaced with drug-free medium containing serum. […] Cells were allowed to grow for 3 cell doubling times and cell numbers were determined.

topoisomerase I = topoisomerase I (Homo sapiens, UniProt P11387); details: cited from earlier work
topoisomerase I, sequence (P11387 whole entry): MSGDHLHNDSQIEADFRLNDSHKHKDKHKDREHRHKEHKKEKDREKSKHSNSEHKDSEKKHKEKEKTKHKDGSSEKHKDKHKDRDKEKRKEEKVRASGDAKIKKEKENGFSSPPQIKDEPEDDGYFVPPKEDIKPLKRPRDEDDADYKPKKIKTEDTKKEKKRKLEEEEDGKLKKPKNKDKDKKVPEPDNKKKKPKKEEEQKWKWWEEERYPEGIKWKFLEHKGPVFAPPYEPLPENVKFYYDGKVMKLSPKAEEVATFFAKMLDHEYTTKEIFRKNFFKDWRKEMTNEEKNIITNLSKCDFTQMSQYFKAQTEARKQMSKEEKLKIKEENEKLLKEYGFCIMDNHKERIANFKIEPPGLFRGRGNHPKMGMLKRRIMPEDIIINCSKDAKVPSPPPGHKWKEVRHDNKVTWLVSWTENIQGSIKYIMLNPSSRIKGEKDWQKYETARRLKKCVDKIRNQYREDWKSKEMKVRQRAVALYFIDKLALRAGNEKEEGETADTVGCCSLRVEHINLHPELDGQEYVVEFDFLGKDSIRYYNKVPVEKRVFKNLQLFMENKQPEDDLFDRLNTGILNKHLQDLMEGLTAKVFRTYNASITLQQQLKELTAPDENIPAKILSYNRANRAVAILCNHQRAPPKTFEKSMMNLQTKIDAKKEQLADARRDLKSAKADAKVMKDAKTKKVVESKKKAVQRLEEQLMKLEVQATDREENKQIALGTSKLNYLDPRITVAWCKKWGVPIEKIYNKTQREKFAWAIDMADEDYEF

T2 sequence (P23141 18-567): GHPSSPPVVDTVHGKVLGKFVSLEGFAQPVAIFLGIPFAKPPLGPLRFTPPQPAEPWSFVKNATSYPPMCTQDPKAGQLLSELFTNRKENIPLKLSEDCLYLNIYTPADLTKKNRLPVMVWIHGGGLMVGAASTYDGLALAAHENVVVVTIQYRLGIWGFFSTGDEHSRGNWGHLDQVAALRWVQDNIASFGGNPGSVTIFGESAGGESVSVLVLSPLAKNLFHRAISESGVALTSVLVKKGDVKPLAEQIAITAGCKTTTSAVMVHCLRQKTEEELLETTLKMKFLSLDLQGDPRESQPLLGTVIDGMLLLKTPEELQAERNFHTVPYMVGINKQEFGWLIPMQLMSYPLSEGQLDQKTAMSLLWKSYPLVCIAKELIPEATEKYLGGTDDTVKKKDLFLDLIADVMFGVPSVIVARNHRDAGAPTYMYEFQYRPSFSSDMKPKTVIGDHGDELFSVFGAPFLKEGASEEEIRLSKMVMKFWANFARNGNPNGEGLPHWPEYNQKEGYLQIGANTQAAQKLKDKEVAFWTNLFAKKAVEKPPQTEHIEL

SMILES: CCc1c2c(nc3ccc(OC(=O)N4CCC(NCCCCC(=O)O)CC4)cc13)-c1cc3c(c(=O)n1C2)COC(=O)[C@]3(O)CC [APC]
- conversion to an active metabolite [1]: not converted to an active metabolite in humans
- conversion of APC to SN-38 (rabbit liver CE [2]): converted to SN-38 in a concentration-dependent manner
- sensitization to growth inhibitory effects of APC [3]: sensitized to the growth inhibitory effects of APC

SMILES: CCc1c2c(nc3ccc(OC(=O)N4CCC(N5CCCCC5)CC4)cc13)-c1cc3c(c(=O)n1C2)COC(=O)[C@]3(O)CC [CPT-11, 7-ethyl-10-[4-(1-piperidino)-1-piperidino]carbonyloxycamptothecin]
- metabolism of CPT-11 (rabbit liver CE [4]): metabolized CPT-11 efficiently
- difference in sensitivity to CPT-11 (% cell survival, FIG. 5) [5]: approximately 350 fold
- metabolism of CPT-11 (pig liver CE): metabolized CPT-11 efficiently
- time until tumors are palpable again at the original site (human NB-1691 xenografts): 4-6 weeks
- tumor response (human NB-1691 xenografts): complete regression of the tumor
- tumor response (Rh18 RMS xenografts; 10 mg/kg/day, same schedule): only partial tumor regression
- tumor response (Rh18 RMS xenografts; 20 mg of CPT-11/kg/day daily for 5 days for two weeks): complete regression
- IC50 [6]: 5400 nM
- CPT-11 Conversion (human liver CE (hCE1)): 9.6 pmol/h/mg
- tumor response [7]: regressed completely and did not regrow during the 12 weeks of the study; also recorded: complete tumor regression, even out to 12 weeks
- tumor response [8]: stable disease with no significant regression; also recorded: stable disease but no significant regression
- prodrug converted to active drug (SN-38) [9]: less than 5%
- IC50 [10]: 500 nM
- CPT-11 Conversion (rabbit liver CE [11]): 2323.0 pmol/h/mg
- tumor response (Rh30 xenografts): regressed only transiently, regrowing within one week after CPT-11 treatment had stopped; also recorded: initial regression but regrowth; also recorded: regressed only transiently with CPT-11 treatment, with regrowth occurring within one week after CPT-11 treatment stopped
- tumor response [12]: regressed completely; also recorded: tumor regression was seen only in treated cells expressing rabbit CE
- inhibition at 1 µM (Rh30 cells; Homo sapiens, Rh30, 1 h, read-out: inhibition of cell growth): 30 to 60%
- inhibition of cell growth (Rh30 cells; Rh30 cells, 1 to 5 units of CE inactivated by heating): no inhibition of cell growth

SMILES: CCc1c2c(nc3ccc(O)cc13)-c1cc3c(c(=O)n1C2)COC(=O)[C@]3(O)CC [SN-38, 7-ethyl-10-hydroxy-camptothecin]
- inhibition of topoisomerase I (topoisomerase I): potent inhibitor of topoisomerase I

Source: patent US7452717B2, “Compositions and methods for sensitizing and inhibiting growth of human tumor cells” (St. Jude Children's Research Hospital, priority 1998, dated 2008)
